From patent publication US6737383B1, “Herbicidal oxadiazolidines” (priority 1999, dated 2004)

Key:
[1] = tested on: rice; test: Test B flood test rice; assay type: in vivo, Oryza sativa
How it was run: (§1)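 Plants were grown to the 2-leaf stage before treatment with test chemical, then held in a greenhouse for twelve to sixteen days. Injury was visually rated against untreated controls on a 0–10 scale, where 0 is no effect and 10 is complete control.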

[2] = tested on: bamyardgrass; test: Test B flood test barnyardgrass; assay type: in vivo, Echinochloa crus-galli
How it was run: as §1

[3] = tested on: common groundsel; test: Test D common groundsel; assay type: in vivo, Senecio vulgaris; details: Preemergence, 0 to 100 scale
How it was run: (§2)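 Scoring used a 0–100 visual injury scale, with 0 meaning no effect and 100 complete control, assessed 14–21 days after application alongside untreated pots. Preemergence treatments went onto sandy loam surfaces of separately potted seeds within a day of sowing.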

[4] = tested on: winter wheat; test: Test E winter wheat; assay type: in vivo, Triticum aestivum; details: Postemergence
How it was run: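 For postemergence, sowings are timed so plants reach the 1- to 4-leaf stage at spraying. Test compound is applied in a surfactant-containing solvent mixture that is non-phytotoxic. Response is judged by eye against untreated controls after approximately 21 to 28 days.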

[5] = tested on: wild oat; test: Test E wild oat; assay type: in vivo, Avena fatua; details: Preemergence
[6] = tested on: bedstraw; test: Test B pre/postemergence bedstraw; assay type: in vivo, Galium aparine
How it was run: (§3)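 Herbicidal effect was estimated by eye on a ten-point control scale after plants spent twelve to sixteen days in a greenhouse following soil or foliar treatment. Foliar sprays targeted plants at one to four leaves; all doses were formulated in a non-phytotoxic solvent with surfactant.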

[7] = tested on: winter barley; test: Test E winter barley; assay type: in vivo, Hordeum vulgare; details: Preemergence
[8] = tested on: Italian ryegrass; test: Test E Italian ryegrass; assay type: in vivo, Lolium multiflorum; details: Preemergence
[9] = tested on: winter wheat; test: Test E winter wheat; assay type: in vivo, Triticum aestivum; details: Preemergence
[10] = tested on: pigweed; test: Test B pre/postemergence pigweed; assay type: in vivo, Amaranthus retroflexus
How it was run: as §3

[11] = tested on: purple nutsedge; test: Test D purple nutsedge; assay type: in vivo, Cyperus rotundus; details: Preemergence, 0 to 100 scale
How it was run: as §2

[12] = tested on: green foxtail; test: Test E green foxtail; assay type: in vivo, Setaria viridis; details: Preemergence
[13] = tested on: blackgrass; test: Test E blackgrass; assay type: in vivo, Alopecurus myosuroides; details: Preemergence
[14] = Postemergence (flood test species), Rate 125 g/ha, scale of 0 to 10 where 0 is no effect and 10 is complete control
[15] = Postemergence, Rate 62 g/ha, scale 0 to 10, 0 is no effect, 10 is complete control
[16] = Rate 250 g/ha, Postemergence (flood test), scale 0 to 10, 0 is no effect, 10 is complete control
[17] = Rate 250 g/ha, headed Pre-emergence (flood test species), scale 0 to 10 (0 no effect, 10 complete control)
[18] = Rate 500 g/ha, headed Pre-emergence (flood test species), scale 0 to 10 (0 no effect, 10 complete control)
[19] = Rate 500 g/ha, listed under Postemergence (flood test species), scale 0 to 10, 0 no effect, 10 complete control
[20] = Rate 1000 g/ha, Pre-emergence (as headed), scale 0 to 10
[21] = Rate 2000 g/ha, Pre-emergence (as headed), scale 0 to 10
[22] = Rate 125 g/ha, Postemergence section (flood test species), scale 0 to 10, 0 no effect, 10 complete control
[23] = Rate 2000 g/ha, Pre-emergence (as headed), scale 0 to 10, 0 no effect, 10 complete control
[24] = flood test, listed under Postemergence, Rate 250 g/ha, scale 0 to 10, 0 no effect, 10 complete control
[25] = Rate 125 g/ha, 0 no injury, 100 complete control
[26] = Rate 250 g/ha, 0 to 100 scale (0 no effect, 100 complete control)
[27] = Rate 500 g/ha, 0 to 100 scale, 0 no effect, 100 complete control
[28] = Rate 500 g/ha, 0 to 100 scale where 0 is no effect and 100 is complete control
[29] = Rate 1000 g/ha, 0 to 100 scale where 0 is no effect and 100 is complete control
[30] = Preemergence, Rate 62 g/ha, scale 0 to 10 (0 no effect, 10 complete control)
[31] = Preemergence, Rate 125 g/ha, scale 0 to 10 (0 no effect, 10 complete control)
[32] = Preemergence, Rate 250 g/ha, scale of 0 to 10 where 0 is no effect and 10 is complete control
[33] = Preemergence, Rate 500 g/ha, scale 0 (no effect) to 10 (complete control)
[34] = Postemergence, Rate 125 g/ha, scale of 0 to 10 where 0 is no effect and 10 is complete control
[35] = Rate 250 g/ha, Postemergence, scale 0 to 10, 0 is no effect, 10 is complete control
[36] = Rate 500 g/ha, Postemergence, scale 0 to 10, 0 no effect, 10 complete control
[37] = Rate 16 g/ha, 0 no injury, 100 complete control
[38] = Rate 32 g/ha, 0 no injury, 100 complete control
[39] = Rate 64 g/ha, 0 no injury, 100 complete control
[40] = Rate 62 g/ha, 0 to 100 scale, 0 no effect, 100 complete control
[41] = Rate 125 g/ha, 0 to 100 scale (0 no effect, 100 complete control)
[42] = Preemergence, Rate 500 g/ha, scale 0 to 10 (0 no effect, 10 complete control)

What does the source list for `CC(C)N(C(=O)n1oc(=O)n(Cc2ccccc2)c1=O)c1ccccc1` [Compound 94]?
Rice plant response rating [1, 14]: 0; Rice plant response rating [1, 15]: 0; Plant response rating, Rice [1, 16]: 0; Rice plant response rating [1, 17]: 0; Plant response rating, Rice [1, 18]: 0; Rice plant response rating [1, 19]: 0; Rice plant response rating [1, 20]: 0; Rice plant response rating [1, 21]: 0; Barnyardgrass plant response rating [2, 15]: 0; Barnyardgrass plant response rating [2, 22]: 0; Barnyardgrass plant response rating [2, 17]: 0; Plant response rating, Barnyardgrass [2, 18]: 0; Barnyardgrass plant response rating [2, 19]: 9; Barnyardgrass plant response rating [2, 20]: 0; Barnyardgrass plant response rating [2, 23]: 7; Barnyardgrass plant response rating [2, 24]: 0; Plant response rating, Com. groundsel [3, 25]: 75; Plant response rating, Com. groundsel ([3]; Rate 500 g/ha): 100; Plant response rating, Wheat (winter) [4, 26]: 0; Plant response rating, Wheat (winter) ([4]; Rate 1000 g/ha, 0 to 100 scale, 0 is no effect and 100 is complete control): 0; Plant response rating, Wheat (winter) [4, 27]: 0; Plant response rating, Wild oat [5, 28]: 40; Plant response rating, Wild oat [5, 29]: 50; Bedstraw plant response rating [6, 30]: 0; Plant response rating, Bedstraw [6, 31]: 0; Plant response rating, Bedstraw [6, 32]: 0; Bedstraw plant response rating [6, 33]: 0; Plant response rating, Barley (winter) ([7]; Rate 250 g/ha, 0 to 100 scale): 40; Plant response rating, Barley (winter) [7, 28]: 50; Plant response rating, Barley (winter) [7, 29]: 50; Plant response rating, I. Ryegrass ([8]; Rate 250 g/ha, 0 to 100 scale): 40; Plant response rating, I. Ryegrass [8, 28]: 60; Plant response rating, I. Ryegrass [8, 29]: 60; Plant response rating, Wheat (winter) ([9]; Rate 250 g/ha, 0 to 100 scale): 30; Plant response rating, Wheat (winter) [9, 28]: 30; Plant response rating, Wheat (winter) [9, 29]: 40; Redroot pigweed plant response rating [10, 15]: 0; Redroot pigweed plant response rating [10, 34]: 0; Redroot pigweed plant response rating [10, 30]: 0; Plant response rating, Redroot pigweed [10, 31]: 0; Plant response rating, Redroot pigweed [10, 32]: 0; Redroot pigweed plant response rating [10, 33]: 4; Plant response rating, Redroot pigweed [10, 35]: 2; Redroot pigweed plant response rating [10, 36]: 4; Purple nutsedge plant response rating [11, 25]: 50; Plant response rating, Purple nutsedge ([11]; Rate 500 g/ha): 50; Plant response rating, Green foxtail ([12]; Rate 250 g/ha, 0 to 100 scale): 80; Plant response rating, Green foxtail [12, 28]: 90; Plant response rating, Green foxtail [12, 29]: 100; Plant response rating, Blackgrass ([13]; Rate 250 g/ha, 0 to 100 scale): 60; Plant response rating, Blackgrass [13, 28]: 60; Plant response rating, Blackgrass [13, 29]: 60

Which results are given for `CC(C)N(C(=O)n1oc(=O)n(C(C)C)c1=O)c1ccc(F)cc1F` [Compound 109]?
Rice plant response rating [1, 14]: 0; Rice plant response rating ([1]; Rate 62 g/ha, Postemergence section, flood test species, scale of 0 to 10 where 0 is no effect and 10 is complete control): 0; Plant response rating, Rice [1, 16]: 0; Rice plant response rating [1, 17]: 0; Plant response rating, Rice [1, 18]: 0; Rice plant response rating [1, 19]: 0; Rice plant response rating [1, 20]: 0; Rice plant response rating [1, 21]: 7; Barnyardgrass plant response rating [2, 15]: 0; Barnyardgrass plant response rating [2, 22]: 0; Barnyardgrass plant response rating [2, 17]: 0; Plant response rating, Barnyardgrass [2, 18]: 0; Barnyardgrass plant response rating [2, 19]: 0; Barnyardgrass plant response rating [2, 20]: 8; Barnyardgrass plant response rating [2, 23]: 9; Barnyardgrass plant response rating [2, 24]: 0; Plant response rating, Com. groundsel [3, 37]: 0; Plant response rating, Com. groundsel [3, 38]: 0; Plant response rating, Com. groundsel [3, 39]: 0; Plant response rating, Com. groundsel [3, 25]: 0; Plant response rating, Com. groundsel ([3]; Rate 250 g/ha): 0; Plant response rating, Com. groundsel ([3]; Rate 500 g/ha): 0; Plant response rating, Wheat (winter) ([4]; Rate 62 g/ha, 0 to 100 scale): 0; Plant response rating, Wheat (winter) ([4]; Rate 125 g/ha, 0 to 100 scale): 55; Plant response rating, Wheat (winter) [4, 26]: 75; Plant response rating, Wheat (winter) [4, 27]: 0; Plant response rating, Wild oat [5, 40]: 20; Plant response rating, Wild oat [5, 41]: 30; Plant response rating, Wild oat [5, 28]: 80; Bedstraw plant response rating [6, 15]: 6; Bedstraw plant response rating ([6]; Postemergence, Rate 250 g/ha, scale 0 to 10, 0 no effect, 10 complete control): 9; Bedstraw plant response rating [6, 30]: 8; Plant response rating, Bedstraw [6, 31]: 10; Plant response rating, Bedstraw [6, 32]: 10; Bedstraw plant response rating [6, 42]: 10; Bedstraw plant response rating ([6]; Rate 125 g/ha, Postemergence, scale 0 to 10, 0 no effect, 10 complete control): 8; Plant response rating, Barley (winter) [7, 40]: 10; Plant response rating, Barley (winter) [7, 41]: 10; Plant response rating, Barley (winter) ([7]; Rate 250 g/ha, 0 to 100 scale): 20; Plant response rating, Barley (winter) [7, 28]: 5; Plant response rating, I. Ryegrass [8, 40]: 20; Plant response rating, I. Ryegrass [8, 41]: 100; Plant response rating, I. Ryegrass ([8]; Rate 250 g/ha, 0 to 100 scale): 100; Plant response rating, I. Ryegrass [8, 28]: 70; Plant response rating, Wheat (winter) [9, 40]: 20; Plant response rating, Wheat (winter) [9, 41]: 30; Plant response rating, Wheat (winter) ([9]; Rate 250 g/ha, 0 to 100 scale): 55; Plant response rating, Wheat (winter) [9, 28]: 10; Redroot pigweed plant response rating [10, 34]: 5; Redroot pigweed plant response rating [10, 30]: 10; Plant response rating, Redroot pigweed [10, 31]: 10; Plant response rating, Redroot pigweed [10, 32]: 10; Redroot pigweed plant response rating [10, 42]: 10; Redroot pigweed plant response rating ([10]; Rate 62 g/ha, Postemergence, scale of 0 to 10 where 0 is no effect and 10 is complete control): 3; Plant response rating, Redroot pigweed [10, 35]: 8; Redroot pigweed plant response rating [10, 36]: 8; Plant response rating, Purple nutsedge [11, 37]: 0; Plant response rating, Purple nutsedge [11, 38]: 0; Purple nutsedge plant response rating [11, 39]: 40; Purple nutsedge plant response rating [11, 25]: 40; Plant response rating, Purple nutsedge ([11]; Rate 250 g/ha): 75; Plant response rating, Purple nutsedge ([11]; Rate 500 g/ha): 85; Plant response rating, Green foxtail [12, 40]: 50; Plant response rating, Green foxtail [12, 41]: 85; Plant response rating, Green foxtail ([12]; Rate 250 g/ha, 0 to 100 scale): 100; Plant response rating, Green foxtail [12, 28]: 85; Plant response rating, Blackgrass [13, 40]: 30; Plant response rating, Blackgrass [13, 41]: 65; Plant response rating, Blackgrass ([13]; Rate 250 g/ha, 0 to 100 scale): 65; Plant response rating, Blackgrass [13, 28]: 90
